In US4386077A (Made Italiana s.r.l, priority 1981, dated 1983):

Experiments:
[1] = Serum kinetics and absolute bioavailability of ^14 C-labelled CDP-choline and "ASONIC" after i.v. and oral administration in Cynomolgus monkeys; format: in vivo, Cynomolgus monkey; details: for Plasmatic concentration: average and S.D. of 2 monkeys, 400 mg/kg per os; for Absolute bioavailability F: oral
Method: From the end of the curves serum concentration/time, it was possible to calculate the constant of the apparent elimination speed from the organism as well as the relative half-life. These values were utilized in calculating the AUC T30 hours →T.infin. for the total of the curves concentration/time in the same animal. The AUC To →T30 hrs was calculated by means of the trapezium methods. […] For each dosage, a randomized cross-over procedure was used. Seriated blood samples were collected until 30 hours after each administration. From the single curves concentration/time it was possible to calculate the AUC To →T30 hrs. After each administration, including the intravenous one, urine was collected at the following time intervals: 0-24 hours, 24-48 hours and 48-72 hours.

[2] = oral, compound as such; cited from earlier work
[3] = format: in vivo, rat; details: rats, oral (gastric gavage), 50 mg CDP-choline, 24 hours
Method: The labelled carbon atom is that of the methyl group of the choline moiety.
At different time intervals a certain amount of blood is collected and, after 24 hours from the beginning of the experiment, the animals are sacrificed. The amount of radioactivity is measured in predetermined serum volumes or weight of the various organs or tissues.
The values are expressed as c.p.m.x 10^-3 /gram of organ or tissue.

With `C[N+](C)(C)CCOP(=O)(O)OP(=O)([O-])OC[C@H]1O[C@@H](n2ccc(N)nc2=O)[C@H](O)[C@@H]1O` [CDP-choline, cytidine diphosphocholine] the Plasmatic concentration ([1]; 24 hr) was 536 ± 122 DPM/ml serum, the Plasmatic concentration ([1]; 30 hr) was 470 ± 98 DPM/ml serum and the Serum concentration ([1]; monkey no. 1, 25 mg/kg i.v., 5') was 8708 DPM/ml. It also gave a Serum concentration ([1]; monkey no. 1, 25 mg/kg i.v., 15') of 3169 DPM/ml, a Serum concentration ([1]; monkey no. 1, 25 mg/kg i.v., 30') of 2226 DPM/ml and a Serum concentration ([1]; monkey no. 1, 25 mg/kg i.v., 60') of 1629 DPM/ml. For the same molecule, the Serum concentration ([1]; monkey no. 1, 25 mg/kg i.v., 2 hr) was 2165 DPM/ml, the Serum concentration ([1]; monkey no. 1, 25 mg/kg i.v., 4 hr) was 2760 DPM/ml and the Serum concentration ([1]; monkey no. 1, 25 mg/kg i.v., 7 hr) was 3120 DPM/ml. The Serum concentration ([1]; monkey no. 1, 25 mg/kg i.v., 24 hr) was 1812 DPM/ml, the Serum concentration ([1]; monkey no. 1, 25 mg/kg i.v., 30 hr) was 1749 DPM/ml and the Serum concentration ([1]; monkey no. 1, 200 mg/kg per os, 30') was 45 DPM/ml. It also gave a Serum concentration ([1]; monkey no. 1, 200 mg/kg per os, 45') of 53 DPM/ml, a Serum concentration ([1]; monkey no. 1, 200 mg/kg per os, 60') of 88 DPM/ml and a Serum concentration ([1]; monkey no. 1, 200 mg/kg per os, 7 hr) of 852 DPM/ml. It also gave a Serum concentration ([1]; monkey no. 1, 200 mg/kg per os, 9 hr) of 743 DPM/ml, a Serum concentration ([1]; monkey no. 1, 200 mg/kg per os, 24 hr) of 339 DPM/ml and a Serum concentration ([1]; monkey no. 1, 400 mg/kg per os, 30') of 35 DPM/ml. The Serum concentration ([1]; monkey no. 1, 400 mg/kg per os, 60') was 52 DPM/ml, the Serum concentration ([1]; monkey no. 1, 400 mg/kg per os, 90') was 29 DPM/ml and the Serum concentration ([1]; monkey no. 1, 400 mg/kg per os, 2 hr) was 75 DPM/ml. It also gave a Serum concentration ([1]; monkey no. 1, 400 mg/kg per os, 3 hr) of 187 DPM/ml, a Serum concentration ([1]; monkey no. 1, 400 mg/kg per os, 4 hr) of 401 DPM/ml and a Serum concentration ([1]; monkey no. 1, 400 mg/kg per os, 6 hr) of 1590 DPM/ml. The Serum concentration ([1]; monkey no. 1, 400 mg/kg per os, 7 hr) was 2712 DPM/ml, the Serum concentration ([1]; monkey no. 1, 400 mg/kg per os, 8 hr) was 4092 DPM/ml and the Serum concentration ([1]; monkey no. 1, 400 mg/kg per os, 9 hr) was 5175 DPM/ml. The Serum concentration ([1]; monkey no. 1, 400 mg/kg per os, 24 hr) was 622 DPM/ml, the Serum concentration ([1]; monkey no. 1, 400 mg/kg per os, 30 hr) was 540 DPM/ml and the Serum concentration ([1]; monkey no. 2, 25 mg/kg i.v., 5') was 12414 DPM/ml. The Serum concentration ([1]; monkey no. 2, 25 mg/kg i.v., 15') was 5007 DPM/ml, the Serum concentration ([1]; monkey no. 2, 25 mg/kg i.v., 30') was 3467 DPM/ml and the Serum concentration ([1]; monkey no. 2, 25 mg/kg i.v., 60') was 2625 DPM/ml. For the same molecule, the Serum concentration ([1]; monkey no. 2, 25 mg/kg i.v., 2 hr) was 2630 DPM/ml, the Serum concentration ([1]; monkey no. 2, 25 mg/kg i.v., 4 hr) was 3369 DPM/ml and the Serum concentration ([1]; monkey no. 2, 25 mg/kg i.v., 7 hr) was 4013 DPM/ml. It also gave a Serum concentration ([1]; monkey no. 2, 25 mg/kg i.v., 24 hr) of 2258 DPM/ml, a Serum concentration ([1]; monkey no. 2, 25 mg/kg i.v., 30 hr) of 2145 DPM/ml and a Serum concentration ([1]; monkey no. 2, 200 mg/kg per os, 15') of 61 DPM/ml. The Serum concentration ([1]; monkey no. 2, 200 mg/kg per os, 45') was 59 DPM/ml, the Serum concentration ([1]; monkey no. 2, 200 mg/kg per os, 60') was 94 DPM/ml and the Serum concentration ([1]; monkey no. 2, 200 mg/kg per os, 7 hr) was 696 DPM/ml. It also gave a Serum concentration ([1]; monkey no. 2, 200 mg/kg per os, 9 hr) of 595 DPM/ml, a Serum concentration ([1]; monkey no. 2, 200 mg/kg per os, 24 hr) of 417 DPM/ml and a Serum concentration ([1]; monkey no. 2, 200 mg/kg per os, 30 hr) of 303 DPM/ml. It also gave a Serum concentration ([1]; monkey no. 2, 400 mg/kg per os, 60') of 69 DPM/ml, a Serum concentration ([1]; monkey no. 2, 400 mg/kg per os, 90') of 52 DPM/ml and a Serum concentration ([1]; monkey no. 2, 400 mg/kg per os, 2 hr) of 81 DPM/ml. It also gave a Serum concentration ([1]; monkey no. 2, 400 mg/kg per os, 3 hr) of 174 DPM/ml, a Serum concentration ([1]; monkey no. 2, 400 mg/kg per os, 4 hr) of 495 DPM/ml and a Serum concentration ([1]; monkey no. 2, 400 mg/kg per os, 6 hr) of 1.401 DPM/ml. For the same molecule, the Serum concentration ([1]; monkey no. 2, 400 mg/kg per os, 7 hr) was 2.560 DPM/ml, the Serum concentration ([1]; monkey no. 2, 400 mg/kg per os, 8 hr) was 4.235 DPM/ml and the Serum concentration ([1]; monkey no. 2, 400 mg/kg per os, 9 hr) was 4.450 DPM/ml. The Serum concentration ([1]; monkey no. 2, 400 mg/kg per os, 24 hr) was 449 DPM/ml, the Serum concentration ([1]; monkey no. 2, 400 mg/kg per os, 30 hr) was 401 DPM/ml and the “Absolute bioavailability” value ([1]; monkeys, oral control dosages) was “much lower”. For the same molecule, the “Absolute bioavailability F” value ([1]; monkeys, 200 mg/kg as CDP-choline) was 0.2143, the “Absolute bioavailability F” value ([1]; monkeys, 400 mg/kg as CDP-choline) was 0.6174 and the Absorbability [2] was “poor absorbability”. For the same molecule, the “Radioactivity value in brain” value [3] was 1.55 c.p.m.x 10^-3 /gram of organ o, the “Radioactivity value in kidney” value [3] was 46.3 c.p.m.x 10^-3 /gram of organ o and the “Radioactivity value in liver” value [3] was 65.4 c.p.m.x 10^-3 /gram of organ o. The “Radioactivity value in muscle” value [3] was 3.1 c.p.m.x 10^-3 /gram of organ o.
